Laboratory results published in the NIST ThermoML archive (doi:10.1021/je200369m).

Conditions: for vapor or sublimation pressure: Liquid, Closed cell; for mass density: Fluid (supercritical or subcritical phases), Buoyancy - hydrostatic balance with magnetic suspension - two sinkers

C=C(F)C(F)(F)F [2,3,3,3-tetrafluoro-1-propene]
Conditions | vapor or sublimation pressure [kPa]
340 K | 1910.2
350 K | 2361.4
355 K | 2616.5
360 K | 2893.8
362 K | 3011.5
364 K | 3133.6
366 K | 3260.2

Conditions | mass density [kg/m3]
345 K, 4594.1 kPa | 930.707
350 K, 613.2 kPa | 26.12
350 K, 985.9 kPa | 44.652
350 K, 1003 kPa | 45.555
350 K, 1736.8 kPa | 92.623
350 K, 2261.9 kPa | 146.58
350 K, 2461 kPa | 839.342
350 K, 6005.4 kPa | 929.873
355 K, 2740.3 kPa | 801.182
360 K, 632.4 kPa | 26.029
360 K, 987.2 kPa | 42.763
360 K, 1005.2 kPa | 43.637
360 K, 1830.5 kPa | 92.622
360 K, 2067 kPa | 110.845
360 K, 2433.6 kPa | 146.594
360 K, 2545.4 kPa | 160.529
360 K, 2767.9 kPa | 197.534
360 K, 3210.5 kPa | 772.483
360 K, 3638.8 kPa | 800.559
362 K, 2963.7 kPa | 235.115
365 K, 991.9 kPa | 42.073
365 K, 1876.6 kPa | 92.619
365 K, 2516.7 kPa | 146.549
365 K, 2892.6 kPa | 197.483
365 K, 3086.7 kPa | 243.237
365 K, 4553.7 kPa | 799.933
368 K, 3184.3 kPa | 243.231
370 K, 651.2 kPa | 25.938
370 K, 993.7 kPa | 41.326
370 K, 996.3 kPa | 41.436
370 K, 2181.6 kPa | 110.789
370 K, 2598.5 kPa | 146.499
370 K, 2866.8 kPa | 176.561
370 K, 3014.9 kPa | 197.482
370 K, 3248.6 kPa | 243.253
370 K, 3252.2 kPa | 244.129
370 K, 5480.7 kPa | 799.34
370.01 K, 1920.5 kPa | 92.497
380 K, 667.9 kPa | 25.765
380 K, 994.8 kPa | 39.809
380 K, 2293.9 kPa | 110.737
380 K, 3047.3 kPa | 173.864
380 K, 3496.1 kPa | 231.99
380 K, 6583.2 kPa | 770.356
390 K, 670.7 kPa | 25.062
390 K, 987.8 kPa | 38.088
390 K, 2404.1 kPa | 110.68
400 K, 683.2 kPa | 24.785
400 K, 991.4 kPa | 36.952
400 K, 2512.9 kPa | 110.64
